The values that follow come from US9388146B2, “Crystalline forms of tyrosine kinase inhibitors and their salts” (Purdue Pharma L.P., priority 2013, dated 2016).

pIC50: −log10 of the molar value. Where two headings read alike, the source gives them in different places.

For series [1], the system named is CCI rats. Briefly: Chronic constriction injury (CCI) model of neuropathic pain in rat. As to conditions: for observed side effects (drowsiness, motor incoordination, abnormality): oral dosing. The class given is in vivo. The text has this: The CCI model is one of the most commonly used mono-neuropathic pain model firstly described in details by Bennett and Xie (Bennett G J, Xie Y K. Pain. 1988; 33(1):87-107). It mimics important clinical chronic pain symptoms such as mechanical allodynia and thermal hyperalgesia. Chronic constriction injury of the sciatic nerve was produced by tying four loose ligatures around the left sciatic nerve according to the method of Bennett and Xie. […] Calibrated von Frey filaments were used to determine the lowest mechanical (tactile) threshold required to evoke a brisk paw withdrawal reflex in the rat hindpaws. Rats were allowed to acclimatize in wire mesh cages for 15-20 min prior to von Frey testing. Assessment of paw withdrawal thresholds (PWTs) using von Frey filaments was undertaken prior to CCI-surgery (pre-surgery baseline on day 0). Before the drug dosing on day 14, the pre-dose baseline was recorded for each rat. […] Drug-naïve CCI-rats (n=4-6 per group) were used. The oral (PO) gavage vehicle was either 10% (w/v) Povidone K25 in water for PO dosing, or 18% (w/v) CrosPovidone in water for PO dosing, or 0.5% CMC-Na/0.1% Tween 80 in distilled water for PO dosing. The positive control gabapentin was dissolved in the vehicle and orally given at 100 mg/kg (by oral gavage). Test article was dissolved or suspended in the vehicle and orally given at 25, 50, 100 and 150 mg/kg. Each CCI-rat was administered a single oral dose of test article, gabapentin or vehicle control, 2 hours before assessment of PWT.

Series [2] is described as follows: Accelerated stability tests by XRPD and Raman. As to conditions: 1 week. It is filed as physicochemical. How it is done:
Approximately 2 mg of sample was gently compressed on the XRPD zero back ground single obliquely cut silica sample holder. The sample was then loaded into a D/MAX 2200 X-ray powder diffractometer (Rigaku) or a Philips X-Pert MPD diffractometer and analyzed using the following experimental conditions (Tube anode: Cu; Generator tension: 40 kV; Tube current: 40 mA; Wavelength alpha1: 1.54056 Å; Wavelength alpha2: 1.5444 Å; Start angle [2 theta]: 5; End angle [2 theta]: 50; and Continuous scan). For suspected novel forms a slightly slower scan speed was used over a range of 4-40° 2θ.
Samples were analyzed by a Nicolet Almega XR Dispersive Raman Microscope for its Raman spectrum using the following conditions (Exposure Time: 1.0 s; Acquisition No: 10; Pinhole Size: 25, 50 or 100 μm; Wavelength range: 2000˜300 cm^−1 (single grating); Laser: […] 100% power; Objective: 20×/0.40 or 50×/0.75 (magnifier/numerical aperture number)). Then the measured Raman spectra were corrected by baseline subtraction using the software OMNIC™ v7.3.

Series [3] can be described thus: Rat pharmacokinetics (plasma, LC-MS/MS, non-compartmental analysis). As to conditions: for bioavailability: oral. The class given is in vivo. How it is done: (§1) Compound I was dosed to nonfasted male CD IGS rats (weighting 180-250 g, Charles River Laboratories) by single intravenous (IV, n=3/group) or oral gavage (PO, n=4/group, including control rat group for drug-free blood and brain collection) administration at a nominal dose levels of 3 mg/kg (IV) or 5 mg/kg (IV) and 10, 50, 100 mg/kg (PO) respectively. Compound was formulated in either DMSO/Solutol® HS 15/phosphate buffered saline, pH 7.4 (PBS) for both IV and PO dosing, or 10% (w/v) Povidone K12 in water for IV dosing or 10% (w/v) Povidone K25 in water for PO dosing, or 18% (w/v) CrosPovidone in water for PO dosing. An intravenous profile was obtained by taking serial or terminal blood samples at 3, 10, 30, 60, 120, 240, 360, 1440 min post dose. An oral profile was obtained by taking serial or terminal blood samples at 10, 30, 60, 120, 240, 360, 480, 1440 min post dose.
(§2) Animals were sedated under general inhalant anesthesia (3% isoflurane) for blood collection by cardiac puncture. Blood aliquots (300-400 μL) were collected in tubes coated with lithium heparin, mixed gently, then kept on ice and centrifuged at 2,500×g for 15 minutes at 4° C., within 1 hour of collection. For control animals, blood was collected by cardiac puncture. The plasma was then harvested and kept frozen at −20° C. until further processing. Plasma Sample Collection from Cannulated Rats. Blood collection was carried out from the jugular vein catheter. Blood aliquots (300-400 μL) were collected in tubes coated with lithium heparin, mixed gently, then kept on ice and centrifuged at 2,500×g for 15 minutes at 4° C., within 1 hour of collection. For control animals, blood was collected by cardiac puncture. The plasma was then harvested and kept frozen at −20° C. until further processing.
(§3) Plasma and brain samples were subjected to quantitative analysis by LC-MS/MS using compound-specific mass transitions. Drug concentration-time profiles were generated and non-compartmental PK analysis (using WinNonlin) used to generate estimates of half-life (T1/2), clearance, volume of distribution (Vss), and oral bioavailability (F %) (Gabriesson, J. and Weiner, D. Pharmacokinetic and Pharmacodynamic Data Analysis: Concepts and Applications. Swedish Pharmaceutical Press. 1997). The concentrations of the test compound in brain (ng/g brain tissue) and in plasma (ng/mL) as well as the ratio of the brain concentration and the plasma concentration at each time point were determined and reported.

A short description of series [4]: Rat brain and plasma concentration after IV dosing. The class given is in vivo. To be noted: male, CD IGS, dose 3 and 5 mg/kg. As to the method: as §1, §2
Immediately after the blood sampling, rats were decapitated and the whole brains were quickly removed, rinsed with cold saline (0.9% NaCl, g/mL), surface vasculature ruptured, blotted with dry gauze, weighed and kept on ice until further processing within 1 hour of collection. Each brain was homogenized in 3 mL cold phosphate-buffered saline, pH 7.4 for 10 seconds on ice using Power Gen 125. The brain homogenate from each brain was then stored at −20° C. until further processing.
as §3

Series [5] relates to CFA-induced rat inflammatory pain. As to the kind of experiment: Rat CFA-induced inflammatory pain model. The class given is in vivo. As to conditions: 50 μL of 1 mM s.c. into paw 3 hours after CFA, FIG. 1. As to the method: Hyperalgesia was induced by subcutaneously injecting 50 μL of CFA (Sigma-Aldrich, St. Louis, Mo., USA) into the plantar surface of the left hind paw of the rats using a 30-gauge hypodermic needle under sevoflurane anesthesia. The classical signs of inflammation, including edema and redness, for up the last day of tests were recorded. To assess the effect of test article on CFA-induced inflammatory pain, the rats were anesthetized with sevoflurane 3 hours after CFA injection and then injected 50 μL of either 1 mM test article (n=6) or Saline (n=4) subcutaneously (S.C.) into the same site as the CFA injection, using a 30-gauge hypodermic needle under sevoflurane anesthesia, according to published method (Ueda K., et al, J Pharmacol. Sci., 2010; 112(4):438-43). Paw withdrawal latencies (thermal hyperalgesia) are measured before and at […] 2, 4, and 7 days after CFA injection. Mechanical thresholds were also measured in the same way with either Formula 1 compound (n=6) or Saline (n=4) at similar different time points (for example, 1, 3 hour and 3 days). The noxious heat and mechanical thresholds were separately measured in each group of rats. The threshold was measured 3-5 times in each rat and then averaged. Stimulus interval was 5 min.

The subject of series [6] is SNL rats. Briefly: Spinal nerve ligation (SNL) mono-neuropathic pain model in rat. The class given is in vivo. As to conditions: oral administration. How it is done: The surgical procedure will be performed according to the method firstly described by Kim and Chung (Kim S H, Chung J M. Pain. 1992; 50(3):355-63.). This procedure will result in tactile allodynia in the left hindpaw. […] The dose-response anti-allodynia effects of test compound: on day 14 after surgery, rats were treated with test article at one of four doses, vehicle or positive control by oral gavage, and PWT was determined by calibrated von Frey filaments at time points of 0 (right before the drug dosing, Pre-Dose Baseline), 0.5, 1, 2, 4 and 6 hr. The anti-allodynia effects of repeated administration of test article: Administration of test article was started on day 7 after surgery, once a day for 7 days. PWT was determined by calibrated von Frey filaments, 2 hour after test article dosing each day. After 7 days dosing, the measurement were continued, every other day without compound dosing for another 7 days. PWT was determined at the time points as given above.

The target in series [7] is TrkB (Homo sapiens, UniProt Q16620). As to the kind of experiment: PathHunter whole cell functional assay, BDNF stimulated TrkB activation. The class given is cell-based. As to conditions: triplicate.
For series [8], the target named is TrkC (Homo sapiens, UniProt Q16288). As to the kind of experiment: PathHunter whole cell functional assay, NT3 stimulated TrkC activation. The class given is cell-based. To be noted: triplicate.
The mark [9] stands for this setting: male, CD IGS, plasma, IV, 3 mg/kg, mean.
[10] abbreviates: male, CD IGS, plasma, PO, 100 mg/kg, mean.

Sequence of TrkC (Q16288 32-839, species assumed): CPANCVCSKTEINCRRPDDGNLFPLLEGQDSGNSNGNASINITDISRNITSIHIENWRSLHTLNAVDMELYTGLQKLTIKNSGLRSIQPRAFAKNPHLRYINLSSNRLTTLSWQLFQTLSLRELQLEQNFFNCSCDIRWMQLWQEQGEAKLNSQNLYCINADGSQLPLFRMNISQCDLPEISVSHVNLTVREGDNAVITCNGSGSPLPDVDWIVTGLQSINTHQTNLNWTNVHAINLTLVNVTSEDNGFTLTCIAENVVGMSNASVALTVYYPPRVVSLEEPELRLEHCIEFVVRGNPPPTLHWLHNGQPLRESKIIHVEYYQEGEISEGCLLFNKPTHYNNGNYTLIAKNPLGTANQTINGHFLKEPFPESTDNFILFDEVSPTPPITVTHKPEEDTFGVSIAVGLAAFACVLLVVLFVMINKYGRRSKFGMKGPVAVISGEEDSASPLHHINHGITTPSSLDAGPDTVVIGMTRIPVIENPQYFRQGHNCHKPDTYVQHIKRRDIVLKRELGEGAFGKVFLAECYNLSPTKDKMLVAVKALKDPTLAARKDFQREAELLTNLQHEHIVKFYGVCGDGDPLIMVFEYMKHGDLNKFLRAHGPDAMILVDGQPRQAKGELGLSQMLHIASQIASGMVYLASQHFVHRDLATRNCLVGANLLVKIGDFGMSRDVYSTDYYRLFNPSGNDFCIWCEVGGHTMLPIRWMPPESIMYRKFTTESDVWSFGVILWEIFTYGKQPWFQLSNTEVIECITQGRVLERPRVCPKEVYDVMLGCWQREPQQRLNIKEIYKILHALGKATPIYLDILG
Sequence of TrkB (Q16620 32-822, species assumed): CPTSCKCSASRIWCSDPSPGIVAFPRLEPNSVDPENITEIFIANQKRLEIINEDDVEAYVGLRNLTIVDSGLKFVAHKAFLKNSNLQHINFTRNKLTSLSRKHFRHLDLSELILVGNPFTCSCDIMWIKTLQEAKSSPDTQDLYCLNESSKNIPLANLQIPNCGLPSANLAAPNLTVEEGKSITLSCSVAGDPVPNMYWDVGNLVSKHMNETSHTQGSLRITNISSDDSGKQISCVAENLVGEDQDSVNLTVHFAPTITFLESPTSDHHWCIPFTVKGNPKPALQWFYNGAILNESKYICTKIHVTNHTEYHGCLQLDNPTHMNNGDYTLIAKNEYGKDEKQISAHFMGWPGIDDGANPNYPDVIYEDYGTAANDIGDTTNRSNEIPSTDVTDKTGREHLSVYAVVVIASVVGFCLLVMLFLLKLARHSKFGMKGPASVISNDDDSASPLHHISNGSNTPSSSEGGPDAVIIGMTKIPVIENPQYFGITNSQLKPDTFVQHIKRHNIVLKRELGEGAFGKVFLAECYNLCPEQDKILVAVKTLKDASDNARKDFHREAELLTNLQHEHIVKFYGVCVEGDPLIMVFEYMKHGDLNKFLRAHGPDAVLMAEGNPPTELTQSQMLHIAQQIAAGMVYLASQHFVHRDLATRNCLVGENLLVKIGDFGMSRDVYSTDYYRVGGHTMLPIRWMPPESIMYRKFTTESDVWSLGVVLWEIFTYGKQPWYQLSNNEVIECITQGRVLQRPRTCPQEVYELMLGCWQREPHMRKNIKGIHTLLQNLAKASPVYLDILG

Take `NCC1(CC(=O)O)CCCCC1` [gabapentin, reference compound]: the “observed side effects (drowsiness, motor incoordination, abnormality)” value in series [1] is “drowsiness or motor incoordination”.
Consider `O=C([O-])c1ccc(Nc2cc(N3CCN(C4CCCCC4)CC3)c3noc4c3c2C(=O)c2ccccc2-4)cc1.[Na+]` [Form A, Sodium 4-((3-(4-cyclohexylpiperazin-1-yl)-6-oxo-6H-anthra[1,9-cd]isoxazol-5-yl)amino)benzoate], for which, in series [2] (40° C./75% RH and 80° C.), the “stability of the polymorphic form” value is “stable polymorphic form”.
Take `O=C([O-])c1ccc(Nc2cc(N3CCN(C4CCCCC4)CC3)c3noc4c3c2C(=O)c2ccccc2-4)cc1.[Na+]` [Compound I, Sodium 4-((3-(4-cyclohexylpiperazin-1-yl)-6-oxo-6H-anthra[1,9-cd]isoxazol-5-yl)amino)benzoate]: the F in series [3] (PO, 100 mg/kg, mean) is on record as around 100%. Further, in series [3] (setting [9]), the clearance was determined as 4 mL/min/kg. Moreover, the half-life in series [3] (setting [9]) is 65 min; in series [3] (setting [10]), 124 min. The Vd in series [3] (male, CD IGS, plasma, IV, 3 mg/kg, mean, read-out: Vss) stood at 0.287 L/kg. For the same compound, in series [3] (setting [10]), the concentration peaked (Cmax) at 66 µg/mL. The compound also returned a bioavailability in series [3] (male, CD IGS, plasma) of 90 to 100%. For the same compound, the concentration at 30 min in series [4] (brain, 30 min, read-out: Brain concentration) came out at 153 ng/g; in series [4] (plasma, 30 min, read-out: Plasma Concentration), 11300 ng/mL. Moreover, the concentration at 60 min amounted to 120 ng/g in series [4] (brain, 60 min, read-out: Brain concentration) and 8160 ng/mL in series [4] (plasma, 60 min, read-out: Plasma Concentration). For the same compound, the concentration at 180 min came out at 23 ng/g in series [4] (brain, 180 min, read-out: Brain concentration) and 1830 ng/mL in series [4] (plasma, 180 min, read-out: Plasma Concentration). Further, the Kp at 30 min in series [4] (brain/plasma, 30 min, read-out: Ratio Brain/Plasma) stood at 0.014. Further, in series [4] (brain/plasma, 60 min, read-out: Ratio Brain/Plasma), the Kp at 60 min was 0.018. Besides, in series [4] (brain/plasma, 180 min, read-out: Ratio Brain/Plasma), the Kp at 180 min was determined as 0.019. Besides, in series [5], the “analgesic effect (thermal hyperalgesia / mechanical threshold)” value is given as “efficacious in relieving the pain”. The “observed side effects (drowsiness, motor incoordination, abnormality)” value in series [1] was “no such effect or other abnormality was observed”. The “more effective in suppressing mechanical allodynia compared to gabapentin” value in series [1] (same oral dose of 100 mg/kg) is “about 100%”. Also, the “effect on mechanical allodynia (PWT, von Frey)” value in series [1] (single oral dose 25, 50, 100 and 150 mg/kg, 2 hours before assessment, FIG. 2) is recorded as “significantly reduced mechanical allodynia”; in series [6], “significantly reduced mechanical allodynia”. Besides, the “stability as measured by XRPD and Raman” value in series [2] (40° C./75% RH) and in series [2] (80° C.) was “no instability” in each case.
For the compound `O=C(O)c1ccc(Nc2cc(N3CCN(C4CCCCC4)CC3)c3noc4c3c2C(=O)c2ccccc2-4)cc1` [Compound C], the pIC50 in series [7] and in series [8] was below 5.00 throughout.
On to `O=C(O)c1ccc(Nc2cc(N3CCN(C4CCCCC4)CC3)c3noc4c3c2C(=O)c2ccccc2-4)cc1` [Compound 701, 4-((3-(4-cyclohexylpiperazin-1-yl)-6-oxo-6H-anthra[1,9-cd]isoxazol-5-yl)amino)benzoic acid], for which the bioavailability in series [3] (male, CD IGS, plasma) is below 20%.
